Reference: patent publication US20240368159A1, “HPK1 DEGRADERS, COMPOSITIONS COMPRISING THE HPK1 DEGRADER, AND METHODS OF USING THE SAME” (BIOFRONT LTD, priority 2021, published 2024)
pIC50: −log10 of the molar value.

Experiments:
[1] = test system: IL-2 production in primary mouse CD3+ T cells; assay: Cytokine measurement: IL-2 production in mouse CD3+ T cells (ELISA); assay type: cell-based; settings: T-cell, plate bound anti-CD3, 40 hrs; for fold induction at 1 µM: 1 uM compound, read-out: IL-2 production Fold change (1 uM); for fold induction at 3 µM: 3 uM compound, read-out: IL-2 production Fold change (3 uM)
Protocol: Anti-CD3 Ab was used to provide signal 1 to stimulate mouse CD3+ T cells. Effect of compound stimulation on T cells was measure by IL2 ELISA. Briefly, anti-CD3 Ab was coated onto plates overnight. Isolated T cells from mouse splenocytes were incubated with plate bound CD3 in the presence and absence of compound for 40 hrs. After incubation, the supernatant was collected and IL2 level in the supernatant was determined by mouse IL2 ELISA kit.

HPK1 protein [2] = biological target: T1, HPK1 protein (Homo sapiens, UniProt Q92918); assay: HPK1 protein degradation in human PBMC (western blot); assay type: cell-based; settings: 18 h incubation
T1 construct: Frozen human PBMC were purchased from Shanghai OribioTech; host or cells: human PBMC
In short: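 Recovered frozen human PBMC in RPMI1640 exposed to a range of compound concentrations for 18 h. Lysates normalized by BCA and HPK1 level read by western blot with anti-HPK1 polyclonal antibody, β-actin as loading control.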
T1 sequence (Q92918 whole entry): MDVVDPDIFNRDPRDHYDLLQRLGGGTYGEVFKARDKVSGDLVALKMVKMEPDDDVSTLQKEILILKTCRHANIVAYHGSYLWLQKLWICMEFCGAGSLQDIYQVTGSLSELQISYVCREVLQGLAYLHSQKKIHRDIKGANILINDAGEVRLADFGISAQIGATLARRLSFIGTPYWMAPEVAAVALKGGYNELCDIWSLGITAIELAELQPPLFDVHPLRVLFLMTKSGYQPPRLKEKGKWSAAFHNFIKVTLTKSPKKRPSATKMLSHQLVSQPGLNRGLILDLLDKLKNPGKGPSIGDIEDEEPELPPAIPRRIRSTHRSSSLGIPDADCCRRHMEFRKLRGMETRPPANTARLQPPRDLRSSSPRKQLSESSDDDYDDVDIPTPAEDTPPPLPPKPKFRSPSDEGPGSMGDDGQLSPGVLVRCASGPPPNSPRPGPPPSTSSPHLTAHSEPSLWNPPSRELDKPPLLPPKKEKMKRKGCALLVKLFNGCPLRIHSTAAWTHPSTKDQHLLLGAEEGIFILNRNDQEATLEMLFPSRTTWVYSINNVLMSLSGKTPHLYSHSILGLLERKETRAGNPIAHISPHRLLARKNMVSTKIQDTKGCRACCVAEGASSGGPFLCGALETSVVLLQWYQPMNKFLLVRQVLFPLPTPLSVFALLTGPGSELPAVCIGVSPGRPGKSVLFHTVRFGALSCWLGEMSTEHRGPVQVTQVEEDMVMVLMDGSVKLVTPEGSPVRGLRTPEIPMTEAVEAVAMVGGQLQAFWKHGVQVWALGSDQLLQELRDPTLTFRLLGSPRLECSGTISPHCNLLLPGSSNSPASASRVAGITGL

HPK1 protein [3] = biological target: T2, HPK1 protein (Homo sapiens, UniProt Q92918); assay: HPK1 enzyme inhibition assay (ADP-Glo); assay type: biochemical; settings: MBP substrate, ATP, ADP-Glo readout
T2 construct: purchased Signal Chem M23-11G-10
T2 sequence (Q92918 1-346 limits assumed): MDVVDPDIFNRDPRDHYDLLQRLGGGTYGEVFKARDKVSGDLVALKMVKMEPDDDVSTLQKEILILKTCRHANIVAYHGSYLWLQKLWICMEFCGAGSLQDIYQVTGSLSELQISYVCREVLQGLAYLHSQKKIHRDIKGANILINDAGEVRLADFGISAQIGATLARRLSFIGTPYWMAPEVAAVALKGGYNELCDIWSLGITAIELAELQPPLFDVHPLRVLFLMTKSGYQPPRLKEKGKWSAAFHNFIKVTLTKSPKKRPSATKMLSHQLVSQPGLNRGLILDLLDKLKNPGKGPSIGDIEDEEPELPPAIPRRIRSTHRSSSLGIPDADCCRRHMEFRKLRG
In short: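 Recombinant human HPK1 preincubated with compound 60 min at 25 °C, then reaction with MBP (0.2 ug/ul, 2× stock) and ATP (20 μM, 2× stock) 60 min at 25 °C. ADP formed detected by ADP-Glo after ATP depletion and conversion to ATP; IC50 calculated from signal.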

HPK1 p-SLP-76 = HPK1 p-SLP-76 inhibition assay in human PBMC (HTRF); assay type: cell-based; settings: 6 h compound, anti-CD3 stimulation 20 min
In short: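 Human PBMC starved overnight in 0.5% FBS, treated with compound 6 h at 37° C, then stimulated with anti-CD3 (10 ug/mL final) for 20 min. Lysates analysed for phospho-SLP76 by HTRF after overnight detection-antibody incubation at 25° C.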

HPK1 protein [4] = biological target: T3, HPK1 protein (Mus musculus, UniProt P70218); assay: HPK1 protein degradation in mouse pan T cell (western blot); assay type: cell-based; settings: 18 h incubation
T3 construct: the CD3+ T cell population was isolated from spleenocytes of mice; endogenous in cells; host or cells: primary mouse splenic CD3+ (pan) T cells
T3 sequence (P70218 1-827): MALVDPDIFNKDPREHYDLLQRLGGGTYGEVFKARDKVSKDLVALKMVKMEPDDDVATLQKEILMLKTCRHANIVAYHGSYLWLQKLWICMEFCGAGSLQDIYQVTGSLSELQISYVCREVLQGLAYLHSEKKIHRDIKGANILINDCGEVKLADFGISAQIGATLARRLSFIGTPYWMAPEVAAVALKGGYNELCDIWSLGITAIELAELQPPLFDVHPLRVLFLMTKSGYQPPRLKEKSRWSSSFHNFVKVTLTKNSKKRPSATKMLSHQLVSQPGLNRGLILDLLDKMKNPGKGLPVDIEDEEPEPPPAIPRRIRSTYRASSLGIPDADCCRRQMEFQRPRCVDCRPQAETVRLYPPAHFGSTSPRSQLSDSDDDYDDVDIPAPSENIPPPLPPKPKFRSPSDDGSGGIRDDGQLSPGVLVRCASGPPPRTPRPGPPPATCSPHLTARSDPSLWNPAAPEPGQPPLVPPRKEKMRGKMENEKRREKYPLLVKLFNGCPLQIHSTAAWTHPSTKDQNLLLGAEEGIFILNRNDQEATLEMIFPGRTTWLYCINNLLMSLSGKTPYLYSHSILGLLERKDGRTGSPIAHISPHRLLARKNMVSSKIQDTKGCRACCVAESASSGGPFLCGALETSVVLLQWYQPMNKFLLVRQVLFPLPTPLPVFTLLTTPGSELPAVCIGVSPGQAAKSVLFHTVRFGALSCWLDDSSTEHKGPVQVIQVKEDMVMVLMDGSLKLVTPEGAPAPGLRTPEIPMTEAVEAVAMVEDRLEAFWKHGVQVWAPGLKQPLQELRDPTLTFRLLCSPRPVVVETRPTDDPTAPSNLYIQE
In short: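 CD3+ pan T cells were isolated from mouse splenocytes and incubated 18 h with a range of compound concentrations. Lysates were normalised by BCA and run on SDS-PAGE. HPK1 was detected by western blot with an anti-human HPK1 polyclonal antibody, with β-actin as loading control.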

| Dmax (HPK1 protein [2]) | pIC50 (HPK1 protein [3]) | pIC50 (HPK1 p-SLP-76) | Dmax (HPK1 protein [4]) | SMILES | fold induction at 1 µM [1] | fold induction at 3 µM [1] |
| --- | --- | --- | --- | --- | --- | --- |
| 98% | 7.00 to 8.00 | 5.52 to 6.52 | 90% | CCc1c[nH]c2ncc(-c3cccc(N4CCN(CCCN5CCC(c6ccc7c(N8CCC(=O)NC8=O)cccc7c6)CC5)CC4=O)c3)c(Cl)c12 [Example 58, 1-(6-(1-(3-(4-(3-(4-chloro-3-ethyl-1H-pyrrolo[2,3-b]pyridin-5-yl)phenyl)-3-oxopiperazin-1-yl)propyl)piperidin-4-yl)naphthalen-1-yl)dihydropyrimidine-2,4 (1H,3H)-dione] | 2.5 | 2 |
| 95% | 7.00 to 8.00 | ≥ 6.52 | 95% | O=C1CCC(N2C(=O)c3cc(F)c(N4CCN(CCCS(=O)(=O)N5CCN(c6cccc(-c7cnc8[nH]cc(C9CC9)c8c7Cl)c6)C(=O)C5)CC4)cc3C2=O)C(=O)N1 (stereo not drawn) [Example 101, 5-(4-(3-((4-(3-(4-chloro-3-cyclopropyl-1H-pyrrolo[2,3-b]pyridin-5-yl)phenyl)-3-oxopiperazin-1-yl)sulfonyl)propyl)piperazin-1-yl)-2-(2,6-dioxopiperidin-3-yl)-6-fluoroisoindoline-1,3-dione] | 1.7 | 3.7 |

| SMILES | Dmax (HPK1 protein [2]) | pIC50 (HPK1 protein [3]) | pIC50 (HPK1 p-SLP-76) | Dmax (HPK1 protein [4]) | fold induction at 1 µM [1] | fold induction at 3 µM [1] |
| --- | --- | --- | --- | --- | --- | --- |
| O=C1CCC(c2ccc(C3CCN(CCCN4CCN(c5cccc(-c6cnc7[nH]cc(C8CC8)c7c6Cl)c5)C(=O)C4)CC3)cc2)C(=O)N1 (stereo not drawn) [Example 73, 3-(4-(1-(3-(4-(3-(4-chloro-3-cyclopropyl-1H-pyrrolo[2,3-b]pyridin-5-yl)phenyl)-3-oxopiperazin-1-yl)propyl)piperidin-4-yl)phenyl)piperidine-2,6-dione] | 87% | ≥ 8.00 | ≥ 6.52 | 95% | 2 | < 0.5 |
